This note sets out measurements from PubChem BioAssay (NCI).

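Tested at 5 concentrations; 48 h exposure; 96-well plates; endpoints linearly interpolated, else capped at highest concentration. At the GI50, growth is halved. TGI denotes the concentration required for complete inhibition of growth.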

Among the test systems are COLO 205 colon; K-562 leukemia; OVCAR-3 ovarian; OVCAR-5 ovarian; RPMI-8226 leukemia; SF-295 CNS; SK-MEL-5 melanoma; SR leukemia; SNB-75 CNS.
What all share (experiment): DTP human tumour cell line panel, 48 h

In the case of `COc1ccc(-c2cc3cc(Cl)cc(Cl)c3oc2=O)cc1OC`, the TGI in the experiment with COLO 205 colon, with K-562 leukemia, in the experiment on OVCAR-3 ovarian, in the experiment with OVCAR-5 ovarian, in the experiment on RPMI-8226 leukemia and with SF-295 CNS was greater than 100 µM throughout. Further, the TGI in the experiment with SK-MEL-5 melanoma and in the experiment with SR leukemia was greater than 100 µM in each case.

In the case of `Cc1cc(-c2ccccc2)nc2oc(=O)n(C)c12`, the TGI with COLO 205 colon, with K-562 leukemia, in the experiment with OVCAR-3 ovarian, with OVCAR-5 ovarian, in the experiment with SF-295 CNS and in the experiment on SK-MEL-5 melanoma was greater than 100 µM in each case.

Turning to `O=C1CC[C@@]23CC(=O)O[C@@H]2CCCC3C1` (some centres undefined), the TGI in the experiment on COLO 205 colon, in the experiment with K-562 leukemia, in the experiment with OVCAR-5 ovarian, in the experiment with RPMI-8226 leukemia, in the experiment on SF-295 CNS and in the experiment with SK-MEL-5 melanoma was greater than 100 µM throughout. Also, the TGI in the experiment with SNB-75 CNS and in the experiment with SR leukemia was greater than 100 µM each time.

As to `O=C(Nc1nn(C(=O)c2cccnc2)c(=O)s1)c1ccc(Cl)cc1`, the TGI with COLO 205 colon, in the experiment on K-562 leukemia, in the experiment with OVCAR-3 ovarian, in the experiment on OVCAR-5 ovarian, with SF-295 CNS and in the experiment on SK-MEL-5 melanoma was greater than 100 µM in each case. Besides, the values for the TGI with SNB-75 CNS and in the experiment on SR leukemia were 82.2 µM and greater than 100 µM, respectively.

For `CC1=C(C(=O)OCCO[N+](=O)[O-])C(c2ccccc2[N+](=O)[O-])C(C(=O)OC(C)C)=C(C)N1` (centres undefined), the TGI (as a rule, the concentration giving total growth inhibition) in the experiment on COLO 205 colon was 29.7 µM; in the experiment with K-562 leukemia it was greater than 100 µM; in the experiment on OVCAR-3 ovarian, 27.9 µM; with OVCAR-5 ovarian, 30.4 µM; in the experiment with RPMI-8226 leukemia, greater than 100 µM; in the experiment on SF-295 CNS it was 34.1 µM. Moreover, the TGI with SK-MEL-5 melanoma is 26.8 µM; in the experiment on SR leukemia, greater than 100 µM.

Turning to `CCOC(=O)N1CCN(c2c(N)nc(C)[nH]c2=O)CC1`, the TGI in the experiment with COLO 205 colon, in the experiment with K-562 leukemia, with OVCAR-3 ovarian, in the experiment on OVCAR-5 ovarian, in the experiment on RPMI-8226 leukemia and in the experiment with SF-295 CNS was greater than 100 µM throughout. In addition, the TGI in the experiment on SNB-75 CNS and with SR leukemia was greater than 100 µM in each case.

Regarding `CC(C)=C/C(CC(O)(C(F)(F)F)C(F)(F)F)=N\O`, the TGI with COLO 205 colon, with K-562 leukemia, in the experiment with OVCAR-5 ovarian, in the experiment with RPMI-8226 leukemia, with SF-295 CNS and in the experiment with SK-MEL-5 melanoma was greater than 100 µM each time. For the same molecule, the TGI in the experiment with SNB-75 CNS and in the experiment with SR leukemia was greater than 100 µM in each case.

For `Nc1c(N2CCOCC2)c(=O)nc2[nH]/c(=C\c3ccccc3O)c(=O)n12`, the TGI in the experiment on COLO 205 colon was greater than 100 µM; in the experiment with K-562 leukemia, greater than 100 µM; with OVCAR-5 ovarian, greater than 100 µM; with RPMI-8226 leukemia it was 77.3 µM; with SF-295 CNS, greater than 100 µM; in the experiment with SK-MEL-5 melanoma, greater than 100 µM. Besides, the TGI in the experiment on SNB-75 CNS and with SR leukemia was greater than 100 µM each time.

With `O=C1c2cc3c(cc2-c2c1c1ccc(Cl)cc1c(=O)n2CCCn1ccnc1)OCO3`, the GI50 (commonly the concentration giving 50% growth inhibition) in the experiment with COLO 205 colon is 0.0552 µM; in the experiment with K-562 leukemia, 0.0229 µM; in the experiment on OVCAR-3 ovarian it was 0.0396 µM; with OVCAR-5 ovarian, 0.0448 µM; in the experiment on RPMI-8226 leukemia, 0.0215 µM; in the experiment on SF-295 CNS, less than 0.01 µM. Moreover, the GI50 is 0.0107 µM with SNB-75 CNS and less than 0.01 µM with SR leukemia. In addition, the TGI was greater than 100 µM with COLO 205 colon; 12.6 µM in the experiment on K-562 leukemia; 1.4 µM in the experiment on OVCAR-3 ovarian; 49 µM in the experiment on OVCAR-5 ovarian; 0.546 µM in the experiment with RPMI-8226 leukemia; 10 µM with SF-295 CNS. The total growth inhibition concentration (TGI) in the experiment with SNB-75 CNS was 4.14 µM; with SR leukemia, 0.0677 µM.

For the molecule `CCOC(=O)C(NC(=O)c1cccc(Cl)c1)(Nc1cccc(C)c1)C(F)(F)F` (centres undefined), the TGI in the experiment with COLO 205 colon is 36.2 µM; in the experiment with K-562 leukemia, greater than 100 µM; in the experiment with RPMI-8226 leukemia, greater than 100 µM; with SK-MEL-5 melanoma, 30.9 µM; in the experiment on SNB-75 CNS it was 43.9 µM; in the experiment with SR leukemia, greater than 100 µM.

For the molecule `C=C1[C@@H]2CCC3[C@]4(C)C(CC[C@@]5(C)C(=O)O[C@H](O)[C@@H]45)[C@H](O)[C@]3(C2)[C@H]1OC1OC(CO)C(O)C(O)C1O` (some centres undefined), the TGI in the experiment on COLO 205 colon, in the experiment with K-562 leukemia, in the experiment with OVCAR-3 ovarian, in the experiment on OVCAR-5 ovarian, with RPMI-8226 leukemia and with SF-295 CNS was greater than 50 µM throughout. Besides, the TGI in the experiment with SK-MEL-5 melanoma and in the experiment with SNB-75 CNS was greater than 50 µM throughout.

With `CCC1(CC)C(=O)N(C(=O)c2cc(OC)c(OC)c(OC)c2)N(C(=O)c2cc(OC)c(OC)c(OC)c2)C1=O`, the TGI with COLO 205 colon, with K-562 leukemia, in the experiment with OVCAR-3 ovarian, with OVCAR-5 ovarian, in the experiment with RPMI-8226 leukemia and with SF-295 CNS was greater than 50 µM each time. Further, the TGI in the experiment on SK-MEL-5 melanoma and with SNB-75 CNS was greater than 50 µM throughout.

Regarding `Cc1ccc(C)c(COCCOCn2cc(N3CCOCC3)c(=O)[nH]c2=O)c1`, the TGI in the experiment on COLO 205 colon, in the experiment with K-562 leukemia, in the experiment with OVCAR-5 ovarian, in the experiment with SF-295 CNS, in the experiment on SNB-75 CNS and with SR leukemia was greater than 100 µM each time.

In the case of `CCOC(=O)c1c(SCc2cc(=O)[nH]c(=O)[nH]2)n(-c2ccccc2)c(=S)n(-c2ccccc2)c1=O`, the TGI in the experiment with COLO 205 colon, in the experiment with K-562 leukemia, with OVCAR-3 ovarian, with OVCAR-5 ovarian, in the experiment with RPMI-8226 leukemia and in the experiment on SK-MEL-5 melanoma was greater than 100 µM each time. For the same molecule, the TGI in the experiment on SNB-75 CNS is greater than 100 µM.

Turning to `C=C(C)[C@H]1CC23C(=O)[C@@](C)(C[C@H]2C1(C)C)C(=O)C(C(=O)C(C)C)=C3O`, the TGI in the experiment on COLO 205 colon turned out to be 23.1 µM; with K-562 leukemia, 49.3 µM; with OVCAR-3 ovarian, 37.7 µM; with OVCAR-5 ovarian, 40.8 µM; with RPMI-8226 leukemia, 27.9 µM; with SF-295 CNS, 36.7 µM. Moreover, the TGI came to 31.5 µM in the experiment with SK-MEL-5 melanoma and 38.7 µM with SR leukemia.

For the molecule `CSc1nc(Cl)c2c(n1)Sc1nc3ccccc3n1C2O` (centres undefined), the TGI in the experiment with COLO 205 colon is greater than 21.6 µM; in the experiment with K-562 leukemia, greater than 100 µM; in the experiment on OVCAR-3 ovarian, greater than 26.5 µM; in the experiment on OVCAR-5 ovarian, greater than 45 µM; with RPMI-8226 leukemia it was 19.5 µM; in the experiment on SF-295 CNS it was greater than 100 µM. For the same molecule, the values for the TGI with SK-MEL-5 melanoma and in the experiment with SNB-75 CNS were greater than 100 µM and greater than 82.2 µM, respectively.
